Test results: patent US20120208182A1, “GENETIC TEST FOR LIVER COPPER ACCUMULATION IN DOGS AND LOW COPPER PET DIET” (priority 2009, published 2012)

Tests used:
[1] = Pharmacokinetic study of oral zinc gluconate, plasma zinc by atomic absorption spectrometry; type: in vivo, Labrador Retrievers; details: for V_F: volume of distribution: food withheld 12 h before dosing
Protocol: Two unrelated nine-year old, healthy Labrador Retrievers (1 female and 1 male) were used in a pharmacokinetic study. Food was withheld for a 12-hour period prior to oral administration of zinc, and during the initial 6-hour testing period. Water was freely available. […] Heparinized blood samples (4 ml) were collected from the jugular vein before dosing (time 0) and 15, 30, 45, 60, 90, 120 minutes, and 4, 8, 12 and 24 hours after application of the drug. Plasma was stored at
−20° C. until analysis for zinc using atomic absorption spectrometry. […]

[2] = tested on: Labrador Retrievers; test: Diet trial with randomized, placebo-controlled zinc application: quantitative hepatic copper by neutron activation analysis; type: in vivo, dog; details: 7.5 mg/kg PO BID versus placebo, all dogs on diet
Protocol: (§1) All dogs were fed the same diet. […] The pharmacist was the only person aware of group allocations until completion of the study. Hepatic copper concentrations and histopathology were assessed along with clinical examinations and blood-work before and after treatment for a mean of 8 months (range 5-13), and 16 months (range 12-25). Plasma zinc concentrations were measured at additional time points during treatment.
All dogs had completed their treatment with penicillamine prior to the start of this study. A medical history was obtained from all dogs and a physical examination was performed. […] Two biopsies were fixed in 10 percent neutral buffered formalin, and one biopsy was stored in a copper-free container for quantitative copper determination.
A quantitative assay for copper in liver tissue was performed by neutron activation analysis, according to a protocol described by Teske et al, using the facilities described by Bode (Bode, P. (1990) Journal of Trace and Microprobe Techniques 8: 139; Teske et al. (1992) Vet Rec 131: 30-32). Quantitative copper concentrations were measured in lyophilised liver biopsies and reported in mg/kg dry weight liver.
All dog owners were provided with the same specially manufactured diet. […] Metabolizable energy (measured according to Association of American Feed Control Officials protocol): 1650 kcal/kg as fed). […]

[3] = Diet trial: blood examinations (bile acids, ALP, ALT, plasma zinc); type: in vivo, dog
Protocol: as §1
All dogs had completed their treatment with penicillamine prior to the start of this study. A medical history was obtained from all dogs and a physical examination was performed. Na-citrated blood samples were taken for analysis of a coagulation profile, including prothrombin time (PT), activated partial thromboplastin time (aPTT) and fibrinogen. Heparin- and EDTA-blood was sampled for analysis of the hepatobiliary enzymes alkaline phosphatase (ALP), alanine aminotransferase (ALT), of bile acids (BA), and for measurement of the platelet count, and plasma zinc concentrations. Liver biopsies were taken according to the Menghini technique given by Rothuizen (Rothuizen J, I. T. (1998) Tijdschr Diergeneeskd 123: 246-252). At least three liver biopsies were taken from each dog. Two biopsies were fixed in 10 percent neutral buffered formalin, and one biopsy was stored in a copper-free container for quantitative copper determination.

[4] = tested on: Labrador Retrievers; test: Diet trial: observed adverse effects; type: in vivo, dog; details: in 3 dogs of group 1; immediately after the tablets, resolved when tablets were mixed with the diet
Protocol: as §1
Owners were instructed to give the tablets mixed with small amounts of their diet 30 minutes before feeding. Neither the owner nor the clinician was informed about which treatment each dog received.

[5] = tested on: Labrador Retrievers; test: Hepatic copper before penicillamine, after penicillamine and after diet (Example 5, FIG. 3); type: in vivo, dog; details: all dogs on diet, data not shown
Protocol: FIG. 3 illustrates the effectiveness of the diet of the invention on hepatic copper concentrations (mg/kg dry weight) in 18 Labrador Retrievers compared with the effect of penicillamine alone. The key to the x-axis is as follows: 1=pre-penicillamine, 2=post-penicillamine/pre-food, 3=post-food. […] The dotted line represents the normal level of hepatic copper for adult dogs.
During an investigation of the effect of zinc on hepatic copper concentration, hepatic copper concentration was measured in 18 pure-bred Labrador Retrievers. Half of the dogs were provided with a supplement of zinc and the other half were provided with a placebo. All of the dogs were fed the diet of Example 2. Hepatic copper concentration was measured using the method of Example 2 at 3 time points: (1) before treatment with penicillamine; (2) after treatment with penicillamine but before treatment with the diet of Example 2; and (3) after the diet treatment.

In the case of zinc gluconate, the “AUC: area under the curve” value ([1]; Dog 1, 10 mg/kg oral) is reported as 63350 ng·h/mL, the “K01: absorption rate constant” value ([1]; Dog 1, 10 mg/kg oral) is reported as 0.5672 h⁻¹ and the “K10: elimination rate constant” value ([1]; Dog 1, 10 mg/kg oral) is reported as 0.05373 h⁻¹. The “Tmax: time of maximum concentration” value ([1]; Dog 1, 10 mg/kg oral) was 4.59 h, the “V_F: volume of distribution” value ([1]; Dog 1, 10 mg/kg oral) was 2937.872 ml/kg bodyweight and the “AUC: area under the curve” value ([1]; Dog 2, 5 mg/kg oral) was 51990 ng·h/mL. The “K01: absorption rate constant” value ([1]; Dog 2, 5 mg/kg oral) was 1.161 h⁻¹, the “K10: elimination rate constant” value ([1]; Dog 2, 5 mg/kg oral) was 0.03789 h⁻¹ and the “Tmax: time of maximum concentration” value ([1]; Dog 2, 5 mg/kg oral) was 3.048 h. The “V_F: volume of distribution” value ([1]; Dog 2, 5 mg/kg oral) was 2538.689 ml/kg bodyweight, the “calculated accumulation rate R” value ([1]; R=1/(1−exp(−k10*24))) was 1.52 and the “apparent oral clearance (CL/F), mean of both dogs” value ([1]; mean of dog 1 and dog 2) was 2.116898 mL/min/kg. The “effect of adjunctive zinc on hepatic copper decrease by diet” value [2] was “did not amplify the de-coppering effect”, the “plasma zinc concentration, group 1 versus group 2” value ([3]; at any of the three examinations (start, recheck-1, recheck-2)) was “No difference” and the “mean plasma zinc concentration” value ([3]; group 1, after the initial month of treatment, sampled 2-6 hours after zinc application, start 95) was 165 µg/dL. For the same substance, the adverse effects [4] was “Vomiting, anorexia, and diarrhea” and the “copper levels in dogs treated with zinc versus placebo” value [5] was “no significant difference”.
